Molecules are shown by their SMILES.

One assay relates to m-IMCD3 cells. The assay can be described thus: Inhibition of PGE2-stimulated in vitro cyst formation in m-IMCD3 cells. As to conditions: Mus musculus, mIMCD3, 144 h, 3 μM; mean cyst area, 100% for (DMSO + PGE2) and 0% for DMSO control; 6 days of culture; read-out: % Cyst area after incubation with 3 μM test compound. It is filed as cell-based, mouse. In outline:
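m-IMCD3 cells embedded in collagen I/Matrigel 3D culture; 18–24 h after plating, compound (0.1% DMSO final) plus PGE2 (100 nM final) added, replenished after 2 or 3 days. After 6 days, z-stack imaging gave mean cyst area, normalized to DMSO+PGE2 (100%) and DMSO (0%).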
On to `O=C(c1ccccc1OC(F)F)N1CCc2nc(N3C4CCC3CNC4)sc2C1` [Example 203, (2-(3,8-diazabicyclo[3.2.1]octan-8-yl)-6,7-dihydrothiazolo[5,4-c]pyridin-5(4H)-yl)(2-(difluoromethoxy)phenyl)methanone], for which the activity at 3 µM is -1%.

Take `COc1cc(F)cc(C#N)c1OCC(=O)N1CCc2nc(N3C4CCC3CNC4)sc2C1` [Example 253, 2-(2-(2-(3,8-diazabicyclo[3.2.1]octan-8-yl)-6,7-dihydrothiazolo[5,4-c]pyridin-5(4H)-yl)-2-oxoethoxy)-5-fluoro-3-methoxybenzonitrile]: the activity at 3 µM is -4%.

With `O=C(c1cccc2cccnc12)N1CCc2nc(N3C4CCC3CNC4)sc2C1` [Example 237, (2-(3,8-diazabicyclo[3.2.1]octan-8-yl)-6,7-dihydrothiazolo[5,4-c]pyridin-5(4H)-yl)(quinolin-8-yl)methanone], the activity at 3 µM was 37%.

For the molecule `CC(C)(CC(=O)N1CCc2nc(N3C4CCC3CNC4)sc2C1)C(F)F` [Example 175, 1-(2-(3,8-diazabicyclo[3.2.1]octan-8-yl)-6,7-dihydrothiazolo[5,4-c]pyridin-5(4H)-yl)-4,4-difluoro-3,3-dimethylbutan-1-one], the activity at 3 µM was -5%.

Take `O=C(C1COc2ccccc2C1)N1CCc2nc(N3C4CCC3CNC4)sc2C1` (stereo not shown) [Example 182, (2-(3,8-diazabicyclo[3.2.1]octan-8-yl)-6,7-dihydrothiazolo[5,4-c]pyridin-5(4H)-yl)(chroman-3-yl)methanone]: the activity at 3 µM is 1%.

For `Cc1cc(F)ncc1C(=O)N1CCc2nc(N3C4CCC3CNC4)sc2C1` [Example 242, (2-(3,8-diazabicyclo[3.2.1]octan-8-yl)-6,7-dihydrothiazolo[5,4-c]pyridin-5(4H)-yl)(6-fluoro-4-methylpyridin-3-yl)methanone], the activity at 3 µM stood at 29%.

Turning to `O=C(c1ccc(CC(F)(F)F)cc1)N1CCc2nc(N3C4CCC3CNC4)sc2C1` [Example 232, (2-(3,8-diazabicyclo[3.2.1]octan-8-yl)-6,7-dihydrothiazolo[5,4-c]pyridin-5(4H)-yl)(4-(2,2,2-trifluoroethyl)phenyl)methanone], the activity at 3 µM was 5%.

For the molecule `Cc1ccc(C(=O)N2CCc3nc(N4C5CCC4CNC5)sc3C2)c(C#N)c1` [Example 238, 2-(2-(3,8-diazabicyclo[3.2.1]octan-8-yl)-4,5,6,7-tetrahydrothiazolo[5,4-c]pyridine-5-carbonyl)-5-methylbenzonitrile], the activity at 3 µM was determined as 5%.

As to `CCC(C)(C)CC(=O)N1CCc2nc(N3C4CCC3CNC4)sc2C1` [Example 174, 1-(2-(3,8-diazabicyclo[3.2.1]octan-8-yl)-6,7-dihydrothiazolo[5,4-c]pyridin-5(4H)-yl)-3,3-dimethylpentan-1-one], the activity at 3 µM amounted to 3%.

Regarding `O=C(COc1ccccc1C(F)F)N1CCc2nc(N3C4CCC3CNC4)sc2C1` [Example 173, 1-(2-(3,8-diazabicyclo[3.2.1]octan-8-yl)-6,7-dihydrothiazolo[5,4-c]pyridin-5(4H)-yl)-2-(2-(difluoromethyl)phenoxy)ethan-1-one], the activity at 3 µM was -2%.

For the molecule `O=C(c1ccccn1)N1CCc2nc(N3C4CCC3CNC4)sc2C1` [Example 201, (2-(3,8-diazabicyclo[3.2.1]octan-8-yl)-6,7-dihydrothiazolo[5,4-c]pyridin-5(4H)-yl)(pyridin-2-yl)methanone], the activity at 3 µM is 17%.

For the molecule `O=C([C@@H](O)C1CCCC1)N1CCc2nc(N3C4CCC3CNC4)sc2C1` [Example 170, (2S)-1-(2-(3,8-diazabicyclo[3.2.1]octan-8-yl)-6,7-dihydrothiazolo[5,4-c]pyridin-5(4H)-yl)-2-cyclopentyl-2-hydroxyethan-1-one], the activity at 3 µM came to 5%.

For the molecule `CC(C)(C)[C@@H](O)C(=O)N1CCc2nc(N3C4CCC3CNC4)sc2C1` [Example 176, (2R)-1-(2-(3,8-diazabicyclo[3.2.1]octan-8-yl)-6,7-dihydrothiazolo[5,4-c]pyridin-5(4H)-yl)-2-hydroxy-3,3-dimethylbutan-1-one], the activity at 3 µM was 12%.

Consider `CC(C)c1ccccc1C(=O)N1CCc2nc(N3C4CCC3CNC4)sc2C1` [Example 215, (2-(3,8-diazabicyclo[3.2.1]octan-8-yl)-6,7-dihydrothiazolo[5,4-c]pyridin-5(4H)-yl)(2-isopropylphenyl)methanone], for which the activity at 3 µM was 7%.

Staying with this assay, now noted: Mus musculus, mIMCD3, 144 h, 10 μM; mean cyst area, 100% for (DMSO + PGE2) and 0% for DMSO control; 6 days of culture; read-out: % Cyst area after incubation with 10 μM test compound.
With `CC(C)(C(=O)N1CCc2nc(N3C4CCC3CNC4)sc2C1)C(F)(F)F` [Example 32, 1-(2-(3,8-diazabicyclo[3.2.1]octan-8-yl)-6,7-dihydrothiazolo[5,4-c]pyridin-5(4H)-yl)-3,3,3-trifluoro-2,2-dimethylpropan-1-one], the activity at 10 µM turned out to be 1%.

In the case of `CC(C)C(O)C(=O)N1CCc2nc(N3C4CCC3CNC4)sc2C1` (stereo not shown) [Example 28, 1-(2-(3,8-diazabicyclo[3.2.1]octan-8-yl)-6,7-dihydrothiazolo[5,4-c]pyridin-5(4H)-yl)-2-hydroxy-3-methylbutan-1-one], the activity at 10 µM stood at 3%.

As for `CC1(C)CCC(C(=O)N2CCc3nc(N4C5CCC4CNC5)sc3C2)C1` (stereo not shown) [Example 38, (2-(3,8-diazabicyclo[3.2.1]octan-8-yl)-6,7-dihydrothiazolo[5,4-c]pyridin-5(4H)-yl)(3,3-dimethylcyclopentyl)methanone], the activity at 10 µM is 8%.

For the molecule `COCC1(CC(=O)N2CCc3nc(N4C5CCC4CNC5)sc3C2)CCCC1` [Example 135, 1-(2-(3,8-diazabicyclo[3.2.1]octan-8-yl)-6,7-dihydrothiazolo[5,4-c]pyridin-5(4H)-yl)-2-(1-(methoxymethyl)cyclopentyl)ethan-1-one], the activity at 10 µM is -6%.

Turning to `O=C(N1CCc2nc(N3C4CCC3CNC4)sc2C1)C1(Oc2ccccc2)CC1` [Example 31, (2-(3,8-diazabicyclo[3.2.1]octan-8-yl)-6,7-dihydrothiazolo[5,4-c]pyridin-5(4H)-yl)(1-phenoxycyclopropyl)methanone], the activity at 10 µM was found to be 7%.

Turning to `O=C(C(O)c1ccc(F)cc1)N1CCc2nc(N3C4CCC3CNC4)sc2C1` (stereo not shown) [Example 132, 1-(2-(3,8-diazabicyclo[3.2.1]octan-8-yl)-6,7-dihydrothiazolo[5,4-c]pyridin-5(4H)-yl)-2-(4-fluorophenyl)-2-hydroxyethan-1-one], the activity at 10 µM is -6%.

As for `O=C(Cc1cnccn1)N1CCc2nc(N3C4CCC3CNC4)sc2C1` [Example 136, 1-(2-(3,8-diazabicyclo[3.2.1]octan-8-yl)-6,7-dihydrothiazolo[5,4-c]pyridin-5(4H)-yl)-2-(pyrazin-2-yl)ethan-1-one], the activity at 10 µM worked out at 18%.

`CC1(C)CN(C(=O)CC2CCC(F)(F)CC2)Cc2sc(N3C4CCC3CNC4)nc21` [Example 98, 1-(2-(3,8-diazabicyclo[3.2.1]octan-8-yl)-7,7-dimethyl-6,7-dihydrothiazolo[5,4-c]pyridin-5(4H)-yl)-2-(4,4-difluorocyclohexyl)ethan-1-one]: the activity at 10 µM was determined as 3%.

`CC(C)(C(=O)N1CCc2nc(N3C4CCC3CNC4)sc2C1)C1CCCC1` [Example 146, 1-(2-(3,8-diazabicyclo[3.2.1]octan-8-yl)-6,7-dihydrothiazolo[5,4-c]pyridin-5(4H)-yl)-2-cyclopentyl-2-methylpropan-1-one]: the activity at 10 µM worked out at 16%.

Regarding `O=C(C1CCCO1)N1CCc2nc(N3C4CCC3CNC4)sc2C1` (stereo not shown) [Example 133, (2-(3,8-diazabicyclo[3.2.1]octan-8-yl)-6,7-dihydrothiazolo[5,4-c]pyridin-5(4H)-yl)(tetrahydrofuran-2-yl)methanone], the activity at 10 µM was 19%.

For `CC1(NC(=O)N2CCc3nc(N4C5CCC4CNC5)sc3C2)CCC1` [Example 124, 2-(3,8-diazabicyclo[3.2.1]octan-8-yl)-N-(1-methylcyclobutyl)-6,7-dihydrothiazolo[5,4-c]pyridine-5(4H)-carboxamide], the activity at 10 µM was -12%.

For `O=C(N1CCc2nc(N3C4CCC3CNC4)sc2C1)N1CCC2(CCCC2)C1` [Example 122, (2-(3,8-diazabicyclo[3.2.1]octan-8-yl)-6,7-dihydrothiazolo[5,4-c]pyridin-5(4H)-yl)(2-azaspiro[4.4]nonan-2-yl)methanone], the activity at 10 µM is -8%.

Consider `O=C(COc1ccc(F)cc1)N1CCn2nc(N3C4CCC3CNC4)cc2C1` [Example 72, 1-(2-(3,8-diazabicyclo[3.2.1]octan-8-yl)-6,7-dihydropyrazolo[1,5-a]pyrazin-5(4H)-yl)-2-(4-fluorophenoxy)ethan-1-one], for which the activity at 10 µM was -3%.

`O=C(CCc1ccccc1)N1CCc2nc(N3C4CCC3CNC4)sc2C1` [Example 5, 1-(2-(3,8-diazabicyclo[3.2.1]octan-8-yl)-6,7-dihydrothiazolo[5,4-c]pyridin-5(4H)-yl)-3-phenylpropan-1-one]: the activity at 10 µM was -5%.

With `O=C(CC1CCOCC1)N1CCc2nc(N3C4CCC3CNC4)sc2C1` [Example 3, 1-(2-(3,8-diazabicyclo[3.2.1]octan-8-yl)-6,7-dihydrothiazolo[5,4-c]pyridin-5(4H)-yl)-2-(tetrahydro-2H-pyran-4-yl)ethan-1-one], the activity at 10 µM was 13%.

For the molecule `CC1(C)CN(C(=O)CC2CCC(F)(F)CC2)Cc2sc(N3CCNCC3)nc21` [Example 100, 2-(4,4-difluorocyclohexyl)-1-(7,7-dimethyl-2-(piperazin-1-yl)-6,7-dihydrothiazolo[5,4-c]pyridin-5(4H)-yl)ethan-1-one], the activity at 10 µM is -1%.

As for `O=C(CC1CCC(F)(F)CC1)N1Cc2nc(N3C4CCC3CNC4)sc2C1` [Example 67, 1-(2-(3,8-diazabicyclo[3.2.1]octan-8-yl)-4,6-dihydro-5H-pyrrolo[3,4-d]thiazol-5-yl)-2-(4,4-difluorocyclohexyl)ethan-1-one], the activity at 10 µM was -4%.
